The target of one experiment is T1, BCL6 (Homo sapiens, UniProt P41182).
T1 construct: Endogenous BCL6 was tagged with the 11-amino acid SmBiT through CRISPR/Cas9 gene editing; endogenous in cells; host or cells: Su-DHL-4 (CRISPR/Cas9 knock-in, single cell clone)
Put plainly: HiBiT cellular degradation assay in Su-DHL-4 cells. The format is cell-based. To be noted: concentration to reach 50% degradation of endogenous SmBiT-tagged BCL6, 24 hours of compound treatment. In short, it runs like this:
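SU-DHL-4 cells with endogenous BCL6 SmBiT-tagged by CRISPR/Cas9 treated with compound for 24 hours, then lysed and LgBiT added to reconstitute nanoluciferase; luminescence read after substrate addition. Degradation as percentage of DMSO control; DC50 is concentration giving 50% degradation.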

Another experiment relates to Su-DHL-4 cells. Put plainly: CellTiter-Glo cell proliferation, BCL6 degrader with EZH2 inhibitors. It counts as cell-based. The protocol:
Enhancer of zeste homolog 2 (EZH2) is a member of the polycomb repressive complex 2 (PRC2) that methylates histone 3 lysine 27, a mark that is associated with gene repression.
To ensure HiBiT signal decrease was due to BCL6 degradation and not from dying cells, CellTiter-Glo® (CTG, Promega™) was performed on the same number of cells that were treated for 24 hours with BCL6 degraders. To study the anti-proliferative effects of BCL6 degraders and its synergistic effect with EZH2 inhibitors, Su-DHL-4 and other DLBCL cells were treated with the compounds at DC99, DC75, DC50, or 1 μM followed by 5 days of culture, at which point CTG values and/or Caspase3/7 activities were measured as percent DMSO treated.

Experimental findings from patent US20250074890A1, “CYANOPYRIDINE AND CYANOPYRIMIDINE BCL6 DEGRADERS” (DANA-FARBER CANCER INSTITUTE, INC., priority 2021, published 2025) are described below.

Take `CNC(=O)COc1cc2cc(Nc3ncc(C#N)c(N4C[C@@H](C)C(F)(F)[C@@H](C)C4)n3)ccc2n(C)c1=O` [Compound 1, 2-((6-((5-cyano-4-((3S,5R)-4,4-difluoro-3,5-dimethylpiperidin-1-yl)pyrimidin-2-yl)amino)-1-methyl-2-oxo-1,2-dihydroquinolin-3-yl)oxy)-N-methylacetamide]: half-maximal degradation at BCL6 (DC50) was put at 6 nM. Further, in the experiment with Su-DHL-4 cells (compound 1 (50 nM to 2 nM) added 48 hours after Tazemetostat or Lirametostat (10 μM to 5 nM), read five days later, over most of the concentration range), the “excess over Bliss (eob) score” value is on record as greater than 1. Also, the “average synergy score (SynergyFinder)” value with Su-DHL-4 cells (compound 1 with Tazemetostat or Lirametostat, Su-DHL-4 cells, over most of the concentration range) is on record as “over 10”.
Consider `C[C@H](O)Cn1c(=O)n(CCC(C)(C)O)c2cc(Nc3nc(N4C[C@@H](N)C(F)(F)[C@@H](C)C4)c(C#N)cc3F)ccc21` [Compound 90, 2-((3R,5S)-3-Amino-4,4-difluoro-5-methylpiperidin-1-yl)-5-fluoro-6-((3-(3-hydroxy-3-methylbutyl)-1-((S)-2-hydroxypropyl)-2-oxo-2,3-dihydro-1H-benzo[d]imidazol-5-yl)amino)nicotinonitrile], for which it took 73 nM to reach half-maximal degradation on BCL6 (DC50).
On BCL6, `C[C@@H](O)Cn1c(=O)n(CCC(C)(C)O)c2cc(Nc3nc(N4C[C@@H](N)C(F)(F)[C@@H](C)C4)c(C#N)cc3F)ccc21` [Compound 91, 2-((3R,5S)-3-Amino-4,4-difluoro-5-methylpiperidin-1-yl)-5-fluoro-6-((3-(3-hydroxy-3-methylbutyl)-1-((R)-2-hydroxypropyl)-2-oxo-2,3-dihydro-1H-benzo[d]imidazol-5-yl)amino)nicotinonitrile] registered a DC50 of 118 nM.
On to `COc1cc(C)[nH]c(=O)c1CNC(=O)c1c(C)n([C@H](C)C2CCN(CC(F)(F)F)CC2)c2ccccc12` [Lira, Lirametostat, reference compound], for which the “reduction of BCL6 degrader dose requirement to achieve GI60” value in the experiment on Su-DHL-4 cells (EZH2 inhibitor at 480 nM added to BCL6 degrader (compound 1), Su-DHL-4 cells, 60% growth inhibition) is given as “around 4.3 fold”.
